Test results from PubChem BioAssay AID330 (DTP/NCI, 2004).
Several values for one entry are separate records, joined by “and”; a condition that tells them apart may be missing. Equal entries are not always repeated. Inconclusive results and toxic doses are left out. How the source made its calls: active means survival T/C of 150% or more; inactive means T/C below 125% in these data.

System: P388 leukemia ip, CD2F1 mice, survival T/C
Assay: NCI In Vivo Anticancer Drug Screen. Data for tumor model P388 Leukemia (intraperitoneal) in CD2F1 (CDF1) mice
Conditions: endpoint: median survival time, higher = longer survival
Outline: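 Mice carrying the transplanted tumor received test compound or vehicle. Survival was recorded in each group, and the value is the treated-group measurement divided by that of the vehicle-treated control group.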

[1] = dose: 50.0 mg/kg/injection, schedule: Q01DX005 (ip), vehicle: Klucel (hydroxypropylcellulose) (HPC)
[2] = dose: 100.0 mg/kg/injection, schedule: Q01DX005 (ip), vehicle: Klucel (hydroxypropylcellulose) (HPC)
[3] = dose: 200.0 mg/kg/injection, schedule: Q01DX005 (ip), vehicle: Klucel (hydroxypropylcellulose) (HPC)
[4] = dose: 100.0 mg/kg/injection, schedule: Q01DX001 (ip), vehicle: saline with Tween-80
[5] = dose: 50.0 mg/kg/injection, schedule: Q01DX005 (ip), vehicle: saline with Tween-80
[6] = dose: 100.0 mg/kg/injection, schedule: Q01DX005 (ip), vehicle: saline with Tween-80
[7] = dose: 200.0 mg/kg/injection, schedule: Q01DX005 (ip), vehicle: saline with Tween-80
[8] = dose: 60.0 mg/kg/injection, schedule: Q01DX005 (ip), vehicle: saline
[9] = dose: 120.0 mg/kg/injection, schedule: Q01DX005 (ip), vehicle: saline
[10] = dose: 240.0 mg/kg/injection, schedule: Q01DX005 (ip), vehicle: saline
[11] = dose: 60.0 mg/kg/injection, schedule: Q01DX005 (ip), vehicle: saline with Tween-80
[12] = dose: 120.0 mg/kg/injection, schedule: Q01DX005 (ip), vehicle: saline with Tween-80
[13] = dose: 240.0 mg/kg/injection, schedule: Q01DX005 (ip), vehicle: saline with Tween-80
[14] = dose: 12.5 mg/kg/injection, schedule: Q01DX005 (ip), vehicle: saline with Tween-80
[15] = dose: 25.0 mg/kg/injection, schedule: Q01DX005 (ip), vehicle: saline with Tween-80

Measured: T/C

N#Cc1cc2cc3c4c(c2oc1=O)CCCN4CCC3
inactive: [1] 95 % of control | [2] 94 % of control | [3] 95 % of control

COC(=O)C1=NC(=S)N=C(C(=O)OC)C12Cc1ccccc1C2=O
inactive: dose: 60.0 mg/kg/injection, schedule: Q01DX005 (ip), vehicle: Klucel (hydroxypropylcellulose) (HPC) 92 % of control | dose: 120.0 mg/kg/injection, schedule: Q01DX005 (ip), vehicle: Klucel (hydroxypropylcellulose) (HPC) 93 % of control | dose: 240.0 mg/kg/injection, schedule: Q01DX005 (ip), vehicle: Klucel (hydroxypropylcellulose) (HPC) 102 % of control

CC1=CO/C(=C\[Si](C)(C)C)OC1c1ccccc1 (stereo not drawn)
inactive: [4] 104 % of control | dose: 200.0 mg/kg/injection, schedule: Q01DX001 (ip), vehicle: saline with Tween-80 108 % of control | dose: 400.0 mg/kg/injection, schedule: Q01DX001 (ip), vehicle: saline with Tween-80 103 % of control

OCc1nccn1-c1ccccc1
inactive: dose: 25.0 mg/kg/injection, schedule: Q04DX002 (ip), vehicle: suspension in saline 100 % of control | dose: 50.0 mg/kg/injection, schedule: Q04DX002 (ip), vehicle: suspension in saline 99 % of control | dose: 100.0 mg/kg/injection, schedule: Q04DX002 (ip), vehicle: suspension in saline 107 % of control | dose: 200.0 mg/kg/injection, schedule: Q04DX002 (ip), vehicle: suspension in saline 100 % of control

Nc1nc(Cl)c(Cl)nc1N
inactive: dose: 50.0 mg/kg/injection, schedule: Q01DX009 (ip), vehicle: saline with Tween-80 110 % of control | dose: 50.0 mg/kg/injection, schedule: Q04DX003 (ip), vehicle: saline with Tween-80 100 % of control | dose: 100.0 mg/kg/injection, schedule: Q01DX009 (ip), vehicle: saline with Tween-80 105 % of control | dose: 100.0 mg/kg/injection, schedule: Q04DX003 (ip), vehicle: saline with Tween-80 100 % of control | dose: 200.0 mg/kg/injection, schedule: Q01DX009 (ip), vehicle: saline with Tween-80 110 % of control | dose: 200.0 mg/kg/injection, schedule: Q04DX003 (ip), vehicle: saline with Tween-80 95 % of control

C=C1SC(=Nc2ccc(Cl)cc2)N(c2nc(Cl)nc(Cl)n2)C12CCCCC2
inactive: dose: 50.0 mg/kg/injection, schedule: Q01DX009 (ip), vehicle: saline 98 % of control | dose: 100.0 mg/kg/injection, schedule: Q01DX009 (ip), vehicle: saline 90 % of control | dose: 200.0 mg/kg/injection, schedule: Q01DX009 (ip), vehicle: saline 89 % of control

C=C1C(=O)O[C@H]2C1[C@H](OC(=O)/C(C)=C\C)CC(=C)[C@@H]1C(=O)[C@H]3O[C@@]3(C)[C@@]12O (stereo partly drawn)
inactive: dose: 12.5 mg/kg/injection, schedule: Q01DX005 (ip), vehicle: saline + alcohol 116 % of control and 117 % of control | dose: 25.0 mg/kg/injection, schedule: Q01DX005 (ip), vehicle: saline + alcohol 110 % of control and 121 % of control

O=C1c2ccccc2-c2cc(O)c3c4c(O)cc5c6c(ccc(c7ccc1c2c73)c64)C(=O)c1ccccc1-5
inactive: [5] 95 % of control | [6] 91 % of control | [7] 89 % of control

COc1cc(CC(CC(=O)c2ccc3c(c2)OCO3)C(=O)O)cc(OC)c1OC (stereo not drawn)
inactive: [1] 94 % of control | [2] 99 % of control | [3] 94 % of control

CC12NCCC(CC(=O)N1)C2(C)C (stereo not drawn)
inactive: [8] 103 % of control | [9] 110 % of control | [10] 106 % of control

O=C1CCC2=C1C(c1ccc(Cl)c(Cl)c1)C1=C(CCC1=O)O2
inactive: dose: 100.0 mg/kg/injection, schedule: Q01DX001 (ip), vehicle: Klucel (hydroxypropylcellulose) (HPC) 98 % of control | dose: 200.0 mg/kg/injection, schedule: Q01DX001 (ip), vehicle: Klucel (hydroxypropylcellulose) (HPC) 100 % of control | dose: 400.0 mg/kg/injection, schedule: Q01DX001 (ip), vehicle: Klucel (hydroxypropylcellulose) (HPC) 102 % of control

CC(C)Nc1nc(Cl)nc(Cl)n1
inactive: [1] 98 % of control | [2] 93 % of control

Nc1cc2c(c[n+](CCC[n+]3cc4c5ccccc5c(N)cc4c4ccccc43)c3ccccc23)c2ccccc12
inactive: dose: 3.13 mg/kg/injection, schedule: Q04DX003 (ip), vehicle: other 94 % of control | dose: 6.25 mg/kg/injection, schedule: Q04DX003 (ip), vehicle: other 102 % of control | dose: 12.5 mg/kg/injection, schedule: Q04DX003 (ip), vehicle: other 93 % of control | dose: 25.0 mg/kg/injection, schedule: Q04DX003 (ip), vehicle: other 92 % of control | dose: 50.0 mg/kg/injection, schedule: Q04DX003 (ip), vehicle: other 93 % of control | dose: 100.0 mg/kg/injection, schedule: Q04DX003 (ip), vehicle: other 86 % of control

O=C1c2cc(O)c(O)cc2C(=O)c2cc3c(cc21)OCO3
inactive: [11] 97 % of control | [12] 90 % of control | [13] 90 % of control

Clc1cc2[nH]ccc2c(Cl)n1
inactive: dose: 50.0 mg/kg/injection, schedule: Q01DX001 (ip), vehicle: saline with Tween-80 90 % of control | [4] 92 % of control

CC(=O)NC(C)(C(C)=O)c1ccccc1 (stereo not drawn)
inactive: [8] 102 % of control | [9] 107 % of control | [10] 110 % of control

CN(C)CCN(C)CCc1ccccn1
inactive: dose: 100.0 mg/kg/injection, schedule: Q01DX001 (ip), vehicle: saline 109 % of control | dose: 200.0 mg/kg/injection, schedule: Q01DX001 (ip), vehicle: saline 102 % of control | dose: 400.0 mg/kg/injection, schedule: Q01DX001 (ip), vehicle: saline 105 % of control

C=C1C(=O)OC2/C=C(\C=O)C3OC3C3OC3(C)CC(OC(=O)/C(=C/C)CO)C12 (stereo not drawn)
inactive: dose: 3.12 mg/kg/injection, schedule: Q01DX005 (ip), vehicle: Klucel (hydroxypropylcellulose) (HPC) 100 % of control | dose: 6.25 mg/kg/injection, schedule: Q01DX005 (ip), vehicle: Klucel (hydroxypropylcellulose) (HPC) 110 % of control | dose: 12.5 mg/kg/injection, schedule: Q01DX005 (ip), vehicle: Klucel (hydroxypropylcellulose) (HPC) 110 % of control | dose: 25.0 mg/kg/injection, schedule: Q01DX005 (ip), vehicle: Klucel (hydroxypropylcellulose) (HPC) 101 % of control

COC(=O)[C@H](NC(=O)c1ccccc1)[C@@H](O)/C=C/c1ccccc1
inactive: [5] 94 % of control | [7] 87 % of control

Cc1ccc2nc(N3C(=O)CSC3=S)sc2c1
inactive: dose: 50.0 mg/kg/injection, schedule: Q01DX009 (ip), vehicle: Klucel (hydroxypropylcellulose) (HPC) 100 % of control | dose: 100.0 mg/kg/injection, schedule: Q01DX009 (ip), vehicle: Klucel (hydroxypropylcellulose) (HPC) 96 % of control

C(#Cc1ccccc1)/C=C/C(=C\c1ccccc1)c1ccccc1
inactive: [14] 101 % of control | [15] 102 % of control | [5] 101 % of control | [6] 100 % of control

O=C(OCc1ccccc1)N1CC=CC1Cc1ccccc1 (stereo not drawn)
inactive: dose: 100.0 mg/kg/injection, schedule: Q01DX001 (ip), vehicle: distilled water + alcohol 97 % of control | dose: 200.0 mg/kg/injection, schedule: Q01DX001 (ip), vehicle: distilled water + alcohol 99 % of control | dose: 400.0 mg/kg/injection, schedule: Q01DX001 (ip), vehicle: distilled water + alcohol 100 % of control

CC1(C)CC(N=[N+]=[N-])CC(C)(C)N1O
inactive: dose: 100.0 mg/kg/injection, schedule: Q04DX003 (ip), vehicle: Klucel (hydroxypropylcellulose) (HPC) 100 % of control

Brc1ccc(-c2cnc3nc4[nH]c5ccccc5c4nn23)cc1
inactive: [14] 101 % of control | [15] 93 % of control | [5] 89 % of control and 91 % of control

CC1C(=O)OC2C1CCC1(C)CC(Br)C(=O)C(C)C21 (stereo not drawn)
inactive: dose: 100.0 mg/kg/injection, schedule: Q04DX002 (ip), vehicle: saline with Tween-80 102 % of control | dose: 200.0 mg/kg/injection, schedule: Q04DX002 (ip), vehicle: saline with Tween-80 102 % of control and 100 % of control | dose: 400.0 mg/kg/injection, schedule: Q04DX002 (ip), vehicle: saline with Tween-80 104 % of control and 101 % of control

COc1ccc(/C=N/N2CN(C(C)C(=O)O)P(Nc3ncccn3)N=C2N)cc1OC (stereo not drawn)
inactive: [8] 104 % of control | [9] 103 % of control | [10] 108 % of control

CC(C)CC(=O)Cc1nc2n(c1O)C(=N)N=N2
inactive: [8] 105 % of control | [9] 98 % of control | [10] 110 % of control

CC1OC(=O)c2cc3ccccc3nc21 (stereo not drawn)
inactive: [11] 93 % of control | [12] 100 % of control | [13] 93 % of control

Cc1ccccc1-n1c(=S)n(-c2ccc(Cl)cc2)c2nc3ccccc3nc1/c2=N/Nc1cc(Cl)ccc1Cl
inactive: [5] 95 % of control | [6] 92 % of control
